Measured values reported in ChEMBL document CHEMBL2021794, “Synthesis, σ₁, σ₂-receptors binding affinity and antiproliferative action of new C1-substituted adamantanes” (Bioorg Med Chem, 2012).
pIC50: −log10 of the molar value. The source made the active and inactive calls. The rule behind the calls is not given here.

Experiments:
PC-3 [1] = test: Induction of apoptosis in human PC3 cells assessed as healthy cells at 0.5 uM after 24 hrs by Annexin V/7-AAD staining based flow cytometry (reference value: 92%); assay type: functional
HCT-15 [2] = test: Cytotoxicity against human HCT15 cells after 48 hrs by trypan blue assay; assay type: functional, cell-based
Mus musculus [3] = test: Toxicity in CD1 mouse assessed as weight loss at 40 mg/kg, ip after 3 to 4 weeks chronic treatment; assay type: organism-based; design: dose 40 mg/kg, route intraperitoneal; conditions: in vivo
PC-3 [4] = test: Cell cycle arrest in human PC3 cells assessed as accumulation at G2 phase at 50 uM after 24 hrs by propidium iodide staining based flow cytometry (reference value: 13%); assay type: functional
IGROV-1 [5] = test: Growth inhibition of human IGROV1 cells after 48 hrs by SRB assay; assay type: functional; conditions: IGROV-1, 48 h
HCT-15 [6] = test: Growth inhibition of human HCT15 cells after 48 hrs by SRB assay; assay type: functional; conditions: HCT-15, 48 h
HCT-116 = test: Growth inhibition of human HCT116 cells after 48 hrs by SRB assay; assay type: functional; conditions: HCT-116, 48 h
BXPC-3 [7] = test: Induction of apoptosis in human BxPC3 cells assessed as healthy cells at 15 uM after 24 hrs by Annexin V/7-AAD staining based flow cytometry (reference value: 77%); assay type: functional
DU-145 = test: Cytotoxicity against human DU145 cells after 48 hrs by trypan blue assay; assay type: functional, cell-based
BXPC-3 [8] = test: Growth inhibition of human BxPC3 cells after 48 hrs by SRB assay; assay type: functional; conditions: BXPC-3, 48 h
BXPC-3 [9] = test: Cell cycle arrest in human BxPC3 cells assessed as accumulation at < G1 phase at 15 uM after 24 hrs by propidium iodide staining based flow cytometry (reference value: 9%); assay type: functional
BXPC-3 [10] = test: Cell cycle arrest in human BxPC3 cells assessed as accumulation at G1 phase at 15 uM after 24 hrs by propidium iodide staining based flow cytometry (reference value: 41%); assay type: functional
IGROV-1 [11] = test: Cell cycle arrest in human IGROV1 cells assessed as accumulation at < G1 phase at 15 uM after 24 hrs by propidium iodide staining based flow cytometry (reference value: 4%); assay type: functional
PC-3 [12] = test: Cell cycle arrest in human PC3 cells assessed as accumulation at S phase at 0.5 uM after 24 hrs by propidium iodide staining based flow cytometry (reference value: 42%); assay type: functional
SF-295 = test: Growth inhibition of human SF295 cells after 48 hrs by SRB assay; assay type: functional; conditions: SF-295, 48 h
BXPC-3 [13] = test: Induction of apoptosis in human BxPC3 cells assessed as cleaved caspase-3 containing cells at 50 uM after 24 hrs by FACS analysis (reference value: 10%); assay type: functional
IGROV-1 [14] = test: Induction of apoptosis in human IGROV1 cells assessed as cleaved caspase-3 containing cells at 0.5 uM after 24 hrs by FACS analysis (reference value: 4%); assay type: functional
BXPC-3 [15] = test: Induction of apoptosis in human BxPC3 cells assessed as total apoptotic death cells at 50 uM after 24 hrs by Annexin V/7-AAD staining based flow cytometry (reference value: 20%); assay type: functional
BXPC-3 [16] = test: Cell cycle arrest in human BxPC3 cells assessed as accumulation at >G2 phase at 5 uM after 24 hrs by propidium iodide staining based flow cytometry (reference value: 6%); assay type: functional
[17] = Selectivity ratio of IC50 for human sigma-1 receptor to IC50 for rat sigma-2 receptor
IGROV-1 [18] = test: Induction of apoptosis in human IGROV1 cells assessed as healthy cells at 0.5 uM after 24 hrs by Annexin V/7-AAD staining based flow cytometry (reference value: 86%); assay type: functional
Mus musculus [19] = test: Toxicity in SCID mouse assessed as mortality at 40 mg/kg, ip after 3 to 4 weeks chronic treatment; assay type: organism-based; design: dose 40 mg/kg, route intraperitoneal; conditions: in vivo
IGROV-1 [20] = test: Cell cycle arrest in human IGROV1 cells assessed as accumulation at >G2 phase at 0.5 uM after 24 hrs by propidium iodide staining based flow cytometry (reference value: 21%); assay type: functional
BXPC-3 [21] = test: Induction of apoptosis in human BxPC3 cells assessed as late apoptotic cells at 0.5 uM after 24 hrs by Annexin V/7-AAD staining based flow cytometry (reference value: 9%); assay type: functional
U-251 = test: Cytotoxicity against human U251 cells after 48 hrs by trypan blue assay; assay type: functional, cell-based
PC-3 [22] = test: Induction of apoptosis in human PC3 cells assessed as early apoptotic cells at 5 uM after 24 hrs by Annexin V/7-AAD staining based flow cytometry (reference value: 5%); assay type: functional
H69AR = test: Growth inhibition of human H69AR cells after 48 hrs by SRB assay; assay type: functional
SF-268 = test: Growth inhibition of human SF268 cells after 48 hrs by SRB assay; assay type: functional; conditions: SF-268, 48 h
BXPC-3 [23] = test: Induction of apoptosis in human BxPC3 cells assessed as healthy cells at 0.5 uM after 24 hrs by Annexin V/7-AAD staining based flow cytometry (reference value: 77%); assay type: functional
[24] = Displacement of [3H]BTX-B from Na+ channel site 2 after 60 mins by liquid scintillation spectroscopy
BXPC-3 [25] = test: Induction of apoptosis in human BxPC3 cells assessed as cleaved caspase-3 containing cells at 15 uM after 24 hrs by FACS analysis (reference value: 10%); assay type: functional
BXPC-3 [26] = test: Cell cycle arrest in human BxPC3 cells assessed as accumulation at G1 phase at 0.5 uM after 24 hrs by propidium iodide staining based flow cytometry (reference value: 41%); assay type: functional
BXPC-3 [27] = test: Cell cycle arrest in human BxPC3 cells assessed as accumulation at >G2 phase at 0.5 uM after 24 hrs by propidium iodide staining based flow cytometry (reference value: 6%); assay type: functional
PC-3 [28] = test: Induction of apoptosis in human PC3 cells assessed as total apoptotic death cells at 5 uM after 24 hrs by Annexin V/7-AAD staining based flow cytometry (reference value: 7%); assay type: functional
PC-3 [29] = test: Cell cycle arrest in human PC3 cells assessed as accumulation at >G2 phase at 50 uM after 24 hrs by propidium iodide staining based flow cytometry (reference value: 6%); assay type: functional
SK-HEP1 = test: Growth inhibition of human SKHEP1 cells after 48 hrs by SRB assay; assay type: functional; conditions: SK-HEP1, 48 h
PC-3 [30] = test: Induction of apoptosis in human PC3 cells assessed as early apoptotic cells at 15 uM after 24 hrs by Annexin V/7-AAD staining based flow cytometry (reference value: 5%); assay type: functional
IGROV-1 [31] = test: Induction of apoptosis in human IGROV1 cells assessed as total apoptotic death cells at 15 uM after 24 hrs by Annexin V/7-AAD staining based flow cytometry (reference value: 13%); assay type: functional
Mus musculus [32] = test: Toxicity in CD1 mouse assessed as mortality at 40 mg/kg, ip after 3 to 4 weeks chronic treatment; assay type: organism-based; design: dose 40 mg/kg, route intraperitoneal; conditions: in vivo
[33] = read-out: LC50 (the source's name)

Q: Which results are given for `CN1CCN(c2ccc(C(c3ccccc3)C34CC5CC(CC(C5)C3)C4)cc2)CC1` (stereo not given)?
A: Activity (PC-3 [1]): 95%; Activity (HCT-15 [2]): Active; Activity (Mus musculus [3]): Non-toxic; Activity (PC-3 [4]): 10%; GI50 (IGROV-1 [5]): 8.83 µM; TGI (IGROV-1 [5]): 58.5 µM; CC50 (IGROV-1 [5]; [33]): 100 µM; GI50 (HCT-15 [6]): 5.54 µM; LC50 (HCT-15 [6]): 100 µM; TGI (HCT-15 [6]): 12.8 µM; GI50 (HCT-116): 4.92 µM; TGI (HCT-116): 9.37 µM; CC50 (HCT-116; [33]): 100 µM; Activity (BXPC-3 [7]): 60%; Activity (DU-145): Active; GI50 (BXPC-3 [8]): 3.84 µM; LC50 (BXPC-3 [8]): 16.6 µM; TGI (BXPC-3 [8]): 6.96 µM; Activity (BXPC-3 [9]): 8%; Activity (BXPC-3 [10]): 51%; Activity (IGROV-1 [11]): 11%; Activity (PC-3 [12]): 40%; GI50 (SF-295): 11 µM; TGI (SF-295): 48.1 µM; CC50 (SF-295; [33]): 85.2 µM; Activity (BXPC-3 [13]): 16%; Activity (IGROV-1 [14]): 5%; Activity (BXPC-3 [15]): 48%; Activity (BXPC-3 [16]): 8%; Ratio IC50 [17]: 11.8; Activity (IGROV-1 [18]): 89%; Activity (Mus musculus [19]): Non-toxic; Activity (IGROV-1 [20]): 20%; Activity (BXPC-3 [21]): 6%; Activity (U-251): Active; Activity (PC-3 [22]): 5%; GI50 (H69AR): 6.04 µM; TGI (H69AR): 18.4 µM; CC50 (H69AR; [33]): 90.5 µM; GI50 (SF-268): 18.9 µM; TGI (SF-268): 61.6 µM; CC50 (SF-268; [33]): 100 µM; Activity (BXPC-3 [23]): 84%; pIC50 [24]: 5.92; Activity (BXPC-3 [25]): 11%; Activity (BXPC-3 [26]): 37%; Activity (BXPC-3 [27]): 8%; Activity (PC-3 [28]): 7%; Activity (PC-3 [29]): 11%; GI50 (SK-HEP1): 6.05 µM; TGI (SK-HEP1): 28.4 µM; CC50 (SK-HEP1; [33]): 77.6 µM; Activity (PC-3 [30]): 6%; Activity (IGROV-1 [31]): 33%; Activity (Mus musculus [32]): Non-toxic
